Results: patent publication US7381521B2, “Anti-pathogenic composition useful in blood preservation” (Altachem Pharma Ltd., priority 2001, dated 2008)

Columns and labels:
[1] = system: herpes virus Hominis type 1, strain Bey (HSV1); experiment: Immediate virocidal action, zone-forming units on vero cells; format: cell-based; conditions: day 4, three culture dishes
[2] = system: AgHBs; experiment: In vitro degradation of the antigen of hepatitis B virus (AgHBs), virocide + human serum of a hepatitis B patient; format: biochemical; conditions: Bardac 0.2%
Source text: Action on In Vitro Degradation of the Antigen of Hepatitis B Virus (AgHBs) of the Hepatitis B Virus: Virocide+Human Serum Taken from a Patient with Hepatitis B ( 1/1000th)

[3] = system: E. coli ATCC 11229; experiment: Test 2 (DGHM), action as a function of disinfection time at 22° C., 2 × 10^9 organisms/ml; format: cell-based, Escherichia coli
Protocol: (§1) Another test was carried out a basis of the following solutions • 100 ml of a 0.1% solution of chlorohexidine digluconate (pH 6); and • 100 ml of a 0.1% solution of Bardac22®.
(§2) The activity of these solutions, alone or in combination, was more particularly tested in respect of Staphylococcus aureus ATCC 6538, Escherichia coli ATCC 11229 and Candida albicans ATCC 10231.
(§3) The tests were conducted in accordance with the procedure described in Chapter I/2.1 and 2.2 of Tichtlinien für die Prüfung und Bewertung chemischer Desinfektionsverfahren der DGHM/Guidelines for Testing and Evaluating Chemical Disinfection Processes of DGHM as at 1.1, 1981.

[4] = system: Candida albicans ATCC 1031; experiment: Test 2 (DGHM), growth inhibition by dilutions, 72 hours at 37° C.; format: cell-based
Protocol: as §1, §2, §3
Tables IX, X and XI respectively illustrate the bactericidal and fungicidal activity of a 0.1% aqueous solution of chlorohexidine digluconate, a 0.1% aqueous solution of Bardac22® and a mixture of equal parts of both compounds. The procedures of which these Tables illustrate the results comprise incubation of 72 hours at 37° C. and the use of the following inactivating substances as controls: • A: 3% Tween®80+0.3% lecithin+0.1% cysteine • B: 3% Tween®80+3% saponin+0.1% cysteine+0.1% histidine; • C: 3% Tween®80+0.3% lecithin+0.1% histidine+0.5% sodium thiosulphate.
In these Tables, the sign “+” indicates an increase and the sign “−” denotes the absence of growth.

[5] = system: spermatozoids; experiment: Spermicidal action, vitality by eosine-nigrosine, 100 spermatozoids examined; format: cell-based, human (healthy volunteers); design: key: living (colourless) cells counted among 100 spermatozoids examined
Protocol: The various samples of sperm (one drop of sperm per sample) are obtained from healthy volunteers.
One drop of sperm is treated by eosine-nigrosine. A smear is then prepared and 100 spermatozoids examined with a microscope. The dead cells are coloured red, either totally or partially. The living cells are colourless.
The substances studied were Bardac® and chlorohexidine digluconate, tested alone and in association in accordance with the invention. The various stages of the procedure are set out in Tables XV to XVII.
The maximum contact time of the various substances and of the sperm was confined to 3 minutes in order to guarantee the effectiveness of the method under the conditions of use. The concentration of the active solutions in the sperm was limited to 10% in order to reduce the risks of toxicity of the products in respect of the mucosa.

[6] = 0.00625% vol/vol, inactivator A
[7] = 0.00625% vol/vol, inactivator B
[8] = 0.00625% vol/vol, inactivator C
[9] = 0.00625% vol/vol, no inactivator
[10] = 0.0125% vol/vol, no inactivator

## CCCCCCCCCC[N+](C)(C)CCCCCCCCCC.[Cl-] [Bardac ®, didecyl dimethyl ammonium chloride]
[1]; Bardac 0.02%
  Number of zone-forming units per milliliter of virus diluted to 10^−4: 30/125/45
[1]; Bardac, concentration not given, second series (control virus at 10^−6)
  Number of zone-forming units per milliliter of virus diluted to 10^−4: 26/17/20
[2]
  Residual AgHBs (ratio): 1.35
[3]; 0.05% vol/vol, 1 min
  growth: +
[3]; 0.05% vol/vol, 3 min
  growth: +
[3]; 0.05% vol/vol, 5 min
  growth: +
[3]; 0.05% vol/vol, 15 min
  growth: +
[3]; 0.05% vol/vol, 30 min
  growth: +
[3]; 0.05% vol/vol, 60 min
  growth: +
[3]; 0.1% vol/vol, 1 min
  growth: +
[3]; 0.1% vol/vol, 3 min
  growth: +
[3]; 0.1% vol/vol, 5 min
  growth: +
[3]; 0.1% vol/vol, 15 min
  growth: +
[3]; 0.1% vol/vol, 30 min
  growth: +
[3]; 0.1% vol/vol, 60 min
  growth: +
[3]; 0.5% vol/vol, 1 min
  growth: +
[3]; 0.5% vol/vol, 3 min
  growth: +
[3]; 0.5% vol/vol, 5 min
  growth: +
[3]; 0.5% vol/vol, 15 min
  growth: +
[3]; 0.5% vol/vol, 30 min
  growth: +
[3]; 0.5% vol/vol, 60 min
  growth: +
[3]; 1% vol/vol, 1 min
  growth: +
[3]; 1% vol/vol, 3 min
  growth: +
[3]; 1% vol/vol, 5 min
  growth: +
[3]; 1% vol/vol, 15 min
  growth: +
[3]; 1% vol/vol, 30 min
  growth: +
[3]; 1% vol/vol, 60 min
  growth: +
[3]; 5% vol/vol, 1 min
  growth: +
[3]; 5% vol/vol, 3 min
  growth: +
[3]; 5% vol/vol, 5 min
  growth: +
[3]; 5% vol/vol, 15 min
  growth: −
[3]; 5% vol/vol, 30 min
  growth: −
[3]; 5% vol/vol, 60 min
  growth: −
[3]; 10% vol/vol, 1 min
  growth: +
[3]; 10% vol/vol, 3 min
  growth: +
[3]; 10% vol/vol, 5 min
  growth: −
[3]; 10% vol/vol, 15 min
  growth: −
[3]; 10% vol/vol, 30 min
  growth: −
[3]; 10% vol/vol, 60 min
  growth: −
[3]; 25% vol/vol, 1 min
  growth: −
[3]; 25% vol/vol, 3 min
  growth: −
[3]; 25% vol/vol, 5 min
  growth: −
[3]; 25% vol/vol, 15 min
  growth: −
[3]; 25% vol/vol, 30 min
  growth: −
[3]; 25% vol/vol, 60 min
  growth: −
[4]
  concentration of active substance inhibiting growth: 0.0001%
  dilution of the 0.1% solution inhibiting growth: 0.1%
[4]; [6]
  growth: +
[4]; [7]
  growth: +
[4]; [8]
  growth: +
[4]; [9]
  growth: +
[4]; 0.0125% vol/vol, inactivator A
  growth: +
[4]; 0.0125% vol/vol, inactivator B
  growth: +
[4]; 0.0125% vol/vol, inactivator C
  growth: +
[4]; [10]
  growth: +
[4]; 0.025% vol/vol, inactivator A
  growth: +
[4]; 0.025% vol/vol, inactivator B
  growth: +
[4]; 0.025% vol/vol, inactivator C
  growth: +
[4]; 0.025% vol/vol, no inactivator
  growth: +
[4]; 0.05% vol/vol, inactivator A
  growth: +
[4]; 0.05% vol/vol, inactivator B
  growth: +
[4]; 0.05% vol/vol, inactivator C
  growth: +
[4]; 0.05% vol/vol, no inactivator
  growth: +
[4]; 0.1% vol/vol, inactivator A
  growth: +
[4]; 0.1% vol/vol, inactivator B
  growth: +
[4]; 0.1% vol/vol, inactivator C
  growth: +
[4]; 0.1% vol/vol, no inactivator
  growth: −
[4]; 0.5% vol/vol, inactivator A
  growth: +
[4]; 0.5% vol/vol, inactivator B
  growth: +
[4]; 0.5% vol/vol, inactivator C
  growth: +
[4]; 0.5% vol/vol, no inactivator
  growth: −
[4]; 1.0% vol/vol, inactivator A
  growth: +
[4]; 1.0% vol/vol, inactivator B
  growth: +
[4]; 1.0% vol/vol, inactivator C
  growth: +
[4]; 1.0% vol/vol, no inactivator
  growth: −
[5]; Bardac solution 0.4%, contact 1 min, 5% in the sperm
  vitality (living spermatozoids): 10.7 ± 7.6
[5]; Bardac solution 0.4%, contact 1 min, 10% in the sperm
  vitality (living spermatozoids): 5 ± 6.4
[5]; Bardac solution 0.4%, contact 3 min, 5% in the sperm
  vitality (living spermatozoids): 0.8 ± 1.2
[5]; Bardac solution 0.4%, contact 3 min, 10% in the sperm
  vitality (living spermatozoids): 0.8 ± 1
[5]; Bardac solution 0.6%, contact 1 min, 5% in the sperm
  vitality (living spermatozoids): 10.5 ± 9.7
[5]; Bardac solution 0.6%, contact 1 min, 10% in the sperm
  vitality (living spermatozoids): 9.2 ± 12.9
[5]; Bardac solution 0.6%, contact 3 min, 5% in the sperm
  vitality (living spermatozoids): 2.2 ± 4.5
[5]; Bardac solution 0.6%, contact 3 min, 10% in the sperm
  vitality (living spermatozoids): 0.4 ± 0.9
[5]; Bardac solution 0.8%, contact 1 min, 5% in the sperm
  vitality (living spermatozoids): 9.7 ± 10.2
[5]; Bardac solution 0.8%, contact 1 min, 10% in the sperm
  vitality (living spermatozoids): 1.8 ± 2.5
[5]; Bardac solution 0.8%, contact 3 min, 5% in the sperm
  vitality (living spermatozoids): 0
[5]; Bardac solution 0.8%, contact 3 min, 10% in the sperm
  vitality (living spermatozoids): 0
[5]; Bardac solution 1%, contact 1 min, 5% in the sperm
  vitality (living spermatozoids): 0
[5]; Bardac solution 1%, contact 1 min, 10% in the sperm
  vitality (living spermatozoids): 0
[5]; Bardac solution 1%, contact 3 min, 5% in the sperm
  vitality (living spermatozoids): 0
[5]; Bardac solution 1%, contact 3 min, 10% in the sperm
  vitality (living spermatozoids): 0

## [H]/N=C(\N/C(=N/[H])NCCCCCCNC(=N)NC(=N)Nc1ccc(Cl)cc1)Nc1ccc(Cl)cc1 [Chlorhexidine, chlorohexidine digluconate, reference compound]
[3]; 0.05% vol/vol, 1 min
  growth: +
[3]; 0.05% vol/vol, 3 min
  growth: +
[3]; 0.05% vol/vol, 5 min
  growth: +
[3]; 0.05% vol/vol, 15 min
  growth: +
[3]; 0.05% vol/vol, 30 min
  growth: +
[3]; 0.05% vol/vol, 60 min
  growth: +
[3]; 0.1% vol/vol, 1 min
  growth: +
[3]; 0.1% vol/vol, 3 min
  growth: +
[3]; 0.1% vol/vol, 5 min
  growth: +
[3]; 0.1% vol/vol, 15 min
  growth: +
[3]; 0.1% vol/vol, 30 min
  growth: +
[3]; 0.1% vol/vol, 60 min
  growth: +
[3]; 0.5% vol/vol, 1 min
  growth: +
[3]; 0.5% vol/vol, 3 min
  growth: +
[3]; 0.5% vol/vol, 5 min
  growth: +
[3]; 0.5% vol/vol, 15 min
  growth: +
[3]; 0.5% vol/vol, 30 min
  growth: +
[3]; 0.5% vol/vol, 60 min
  growth: +
[3]; 1% vol/vol, 1 min
  growth: +
[3]; 1% vol/vol, 3 min
  growth: +
[3]; 1% vol/vol, 5 min
  growth: +
[3]; 1% vol/vol, 15 min
  growth: +
[3]; 1% vol/vol, 30 min
  growth: +
[3]; 1% vol/vol, 60 min
  growth: +
[3]; 5% vol/vol, 1 min
  growth: +
[3]; 5% vol/vol, 3 min
  growth: +
[3]; 5% vol/vol, 5 min
  growth: +
[3]; 5% vol/vol, 15 min
  growth: +
[3]; 5% vol/vol, 30 min
  growth: −
[3]; 5% vol/vol, 60 min
  growth: −
[3]; 10% vol/vol, 1 min
  growth: +
[3]; 10% vol/vol, 3 min
  growth: +
[3]; 10% vol/vol, 5 min
  growth: +
[3]; 10% vol/vol, 15 min
  growth: −
[3]; 10% vol/vol, 30 min
  growth: −
[3]; 10% vol/vol, 60 min
  growth: −
[3]; 25% vol/vol, 1 min
  growth: +
[3]; 25% vol/vol, 3 min
  growth: +
[3]; 25% vol/vol, 5 min
  growth: +
[3]; 25% vol/vol, 15 min
  growth: −
[3]; 25% vol/vol, 30 min
  growth: −
[3]; 25% vol/vol, 60 min
  growth: −
[4]
  concentration of active substance inhibiting growth: 0.001%
  dilution of the 0.1% solution inhibiting growth: 1%
[4]; [6]
  growth: +
[4]; [7]
  growth: +
[4]; [8]
  growth: +
[4]; [9]
  growth: +
[4]; 0.0125% vol/vol, inactivator A
  growth: +
[4]; 0.0125% vol/vol, inactivator B
  growth: +
[4]; 0.0125% vol/vol, inactivator C
  growth: +
[4]; [10]
  growth: +
[4]; 0.025% vol/vol, inactivator A
  growth: +
[4]; 0.025% vol/vol, inactivator B
  growth: +
[4]; 0.025% vol/vol, inactivator C
  growth: +
[4]; 0.025% vol/vol, no inactivator
  growth: +
[4]; 0.05% vol/vol, inactivator A
  growth: +
[4]; 0.05% vol/vol, inactivator B
  growth: +
[4]; 0.05% vol/vol, inactivator C
  growth: +
[4]; 0.05% vol/vol, no inactivator
  growth: +
[4]; 0.1% vol/vol, inactivator A
  growth: +
[4]; 0.1% vol/vol, inactivator B
  growth: +
[4]; 0.1% vol/vol, inactivator C
  growth: +
[4]; 0.1% vol/vol, no inactivator
  growth: +
[4]; 0.5% vol/vol, inactivator A
  growth: +
[4]; 0.5% vol/vol, inactivator B
  growth: +
[4]; 0.5% vol/vol, inactivator C
  growth: +
[4]; 0.5% vol/vol, no inactivator
  growth: +
[4]; 1.0% vol/vol, inactivator A
  growth: +
[4]; 1.0% vol/vol, inactivator B
  growth: +
[4]; 1.0% vol/vol, inactivator C
  growth: +
[4]; 1.0% vol/vol, no inactivator
  growth: −
[5]; Chlorohexidine digluconate solution 0.5%, contact 1 min, 5% in the sperm
  vitality (living spermatozoids): 77 ± 10.8
[5]; Chlorohexidine digluconate solution 0.5%, contact 1 min, 10% in the sperm
  vitality (living spermatozoids): 77.2 ± 5.6
[5]; Chlorohexidine digluconate solution 0.5%, contact 3 min, 5% in the sperm
  vitality (living spermatozoids): 78 ± 5.7
[5]; Chlorohexidine digluconate solution 0.5%, contact 3 min, 10% in the sperm
  vitality (living spermatozoids): 75.5 ± 4.8
